Data taken from US10981932B2, “Macrocyclic indole derivatives” (Bayer Aktiengesellschaft, priority 2016, dated 2021).
Where “and” joins values, the source holds several entries; their conditions need not be identical. Equal entries are not always repeated. Structures can show the parent of a compound that is named as a salt. Where two headings read alike, the source gives them in different places.

Columns and labels:
SUDHL10 [1] = assay: Anti-proliferative effect (CellTiter-Glo, 72 h), SUDHL10; type: cell-based; conditions: SUDHL10 cells, antiproliferation, 72 h incubation, median, read-out: Antiproli SUDHL10 [M] (median)
Outline: (§1)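 Cells plated and incubated with compounds for 72 h at 37 °C, with a parallel day 0 reference plate for time-zero signal. Viability read by CellTiter-Glo luminescence after 10 min, measured identically on the day 0 and 72 h plates.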

SUDHL5 [2] = assay: Anti-proliferative effect (CellTiter-Glo, 72 h), SUDHL5; type: cell-based; conditions: SUDHL5 cells, antiproliferation, 72 h incubation, median, read-out: Antiproli SUDHL5 [M] (median)
Outline: as §1

A2780 = assay: Anti-proliferative effect (CellTiter-Glo, 72 h), A2780; type: cell-based; conditions: A2780 cells, median, read-out: IC50 antiproliferation assay A2780 [M] (median)
Outline: as §1

SUDHL10 [3] = assay: Induction of cytotoxicity (CellTiter-Glo, 5 h), SUDHL10
MCL-1 = MCL-1 (Homo sapiens, UniProt Q07820); assay: Protein-protein interaction assay MCL-1/Noxa BH3 peptide (MCL-1 assay), TR-FRET; type: binding; conditions: MBP-MCL-1 / Noxa BH3-derived peptide, median
Outline: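 IC50 came from a 4-parameter fit of the normalized 665/620 nm TR-FRET ratio (anti-MBP Eu-cryptate/streptavidin-XL665). Compounds (0.1 nM–20 μM, duplicates) were preincubated 10 min at 22 °C with 1 nM MBP-MCL-1 in pH 7 Tris/NaCl/KF buffer, then read after 1 h at 22 °C plus overnight at 4 °C.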

SUDHL5 [4] = assay: Induction of cytotoxicity (CellTiter-Glo, 5 h), SUDHL5
SUDHL10 [5] = assay: Induction of caspase-3/7 activity (Caspase-Glo 3/7), SUDHL10; type: cell-based; conditions: caspase-3/7 induction, SUDHL10 cells, 3 h treatment, median
Outline: (§2)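 DLBCL lines SUDHL5 and SUDHL10 treated with compounds for 3 h at 37 °C; caspase-3/7 activity read by Caspase-Glo 3/7 luminescence. Medium-only background subtracted; EC50 fitted with bottom fixed at 1 and top fixed at the reference compound's maximal induction.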

SUDHL5 [6] = assay: Induction of caspase-3/7 activity (Caspase-Glo 3/7), SUDHL5; type: cell-based; conditions: caspase-3/7 induction, SUDHL5 cells, 3 h treatment, median
Outline: as §2

OPM2 = assay: Anti-proliferative effect (CellTiter-Glo, 72 h), OPM2; type: cell-based; conditions: OPM2 cells, median, read-out: IC50 antiproliferation assay OPM2 [M] (median)
Outline: as §1

[7] = read-out: Cytotox SUDHL10 [M] (median), SUDHL10 cells, cytotoxicity induction, CellTiter-Glo, 5 h incubation, median
[8] = read-out: Cytotox SUDHL5 [M] (median), SUDHL5 cells, cytotoxicity induction, CellTiter-Glo, 5 h incubation, median
[9] = Homo sapiens, SU-DHL10, 5 h, read-out: Cytotox SUDHL10 [M] (median), SUDHL10 cells, cytotoxicity induction, CellTiter-Glo, 5 h incubation, median
[10] = Homo sapiens, SU-DHL-5, 5 h, read-out: Cytotox SUDHL5 [M] (median), SUDHL5 cells, cytotoxicity induction, CellTiter-Glo, 5 h incubation, median

Chain of MCL-1 (Q07820 whole entry): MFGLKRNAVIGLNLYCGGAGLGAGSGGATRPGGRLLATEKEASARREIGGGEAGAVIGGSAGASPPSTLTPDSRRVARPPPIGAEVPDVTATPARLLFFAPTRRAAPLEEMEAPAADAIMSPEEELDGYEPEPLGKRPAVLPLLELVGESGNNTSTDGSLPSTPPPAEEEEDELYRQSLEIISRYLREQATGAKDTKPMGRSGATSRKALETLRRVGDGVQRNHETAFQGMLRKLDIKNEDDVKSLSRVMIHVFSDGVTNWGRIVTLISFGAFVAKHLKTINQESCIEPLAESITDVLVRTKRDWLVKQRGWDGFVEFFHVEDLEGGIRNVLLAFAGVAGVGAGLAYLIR

Cn1nc(COc2ccc(S(C)(=O)=O)cc2)c2c1COCCCCn1c(C(=O)O)c(CCCOc3cccc4ccccc34)c3cccc-2c31 (single isomer, unassigned) [Example 1-56, (+)-1-methy-3-{[4-(methylsulfonyl)phenoxy]methyl}-7-[3-(naphthalen-1-yloxy)propyl]-1,10,11,12,13,15-hexahydropyrazolo[4′,3′:9,10][1,6]oxazacycloundecino[8,7,6-hi]indole-8-carboxylic Acid]
IC50 (SUDHL10 [1]): > 3.3e-05 M
IC50 (SUDHL5 [2]): > 3.3e-06 M
IC50 (A2780): > 3.3e-05 M
IC50 (SUDHL10 [3]; [7]): 2.95e-05 M
IC50 (MCL-1): 0.00684 µM
IC50 (SUDHL5 [4]; [8]): 5.72e-06 M
EC50 (SUDHL10 [5]): 7.13 µM
EC50 (SUDHL5 [6]): 5.7 µM
IC50 (OPM2): > 3.3e-05 M

CC(C)OCc1nn(C)c2c1-c1cccc3c(CCCOc4cccc5ccccc45)c(C(=O)O)n(c13)CCCN(C)C2 (single isomer, unassigned) [Example 1-72, 7,9-dimethyl-1-[3-(naphthalen-1-yloxy)propyl]-1-[(propan-2-yloxy)methyl]-4,5,6,7,8,9-hexahydropyrazolo[3′,4′:7,8][1,5]diazecino[9,10,1-hi]indole-2-carboxylic Acid]
IC50 (SUDHL10 [1]): 1.37e-05 M
IC50 (SUDHL5 [2]; Homo sapiens, SU-DHL-5, 72 h): 2.38e-05 M
IC50 (A2780): 1.85e-05 M
IC50 (SUDHL10 [3]; [7]): 1.98e-05 M
IC50 (MCL-1): 0.0126 µM
IC50 (SUDHL5 [4]; [8]): 8.53e-06 M
EC50 (SUDHL10 [5]): > 33 µM
EC50 (SUDHL5 [6]): > 33 µM
IC50 (OPM2): 1.53e-05 M

CC(=O)N1CCN(c2ccc(OCc3nn(C)c4c3-c3cccc5c(CCCOc6cccc7ccccc67)c(C(=O)O)n(c35)CCCCOC4)cc2)CC1 (racemic) [Example 1-24, (rac)-3-{[4-(4-acetylpiperazin-1-yl)phenoxy]methyl}-1-methyl-7-[3-(naphthalen-1-yloxy)propyl]-1,10,11,12,13,15-hexahydropyrazolo[4′,3′:9,10][1,6]oxazacycloundecino[8,7,6-hi]indole-8-carboxylic Acid]
IC50 (SUDHL10 [1]; Homo sapiens, SU-DHL10, 72 h): 6.52e-06 M
IC50 (SUDHL5 [2]; Homo sapiens, SU-DHL-5, 72 h): 4.7e-06 M
IC50 (A2780; Homo sapiens, A2780, 72 h): > 3.3e-05 M
IC50 (SUDHL10 [3]; [9]): 4.33e-06 M
IC50 (MCL-1): 0.00231 µM
IC50 (SUDHL5 [4]; [10]): 2.23e-06 M
EC50 (SUDHL10 [5]; Homo sapiens, SU-DHL10, 3 h): 6.61 µM
EC50 (SUDHL5 [6]; Homo sapiens, SU-DHL-5, 3 h): 4.28 µM
IC50 (OPM2; Homo sapiens, OPM-2, 72 h): 2.97e-05 M

Cc1c2c(nn1CCN1CCOCC1)CN(C)CCCn1c(C(=O)O)c(CCCOc3cccc4ccccc34)c3cccc-2c31 (racemic) [Example 059, (rac)-7,11-dimethyl-10-[2-(morpholin-4-yl)ethyl]-1-[3-(naphthalen-1-yloxy)propyl]-4,5,67,8,10-hexahydropyrazolo[3′,4′:7,8][1,5]diazecino[9,10,1-hi]indole-2-carboxylic Acid]
IC50 (SUDHL10 [1]; Homo sapiens, SU-DHL10, 72 h): 1.99e-05 M
IC50 (SUDHL5 [2]; Homo sapiens, SU-DHL-5, 72 h): 6.96e-06 M
IC50 (A2780; Homo sapiens, A2780, 72 h): 2.91e-05 M
IC50 (SUDHL10 [3]; [9]): 1.9e-05 M
IC50 (MCL-1): 0.0239 µM
IC50 (SUDHL5 [4]; [10]): 2.54e-05 M
EC50 (SUDHL10 [5]; Homo sapiens, SU-DHL10, 3 h): 27.7 µM
EC50 (SUDHL5 [6]; Homo sapiens, SU-DHL-5, 3 h): 15.9 µM
IC50 (OPM2; Homo sapiens, OPM-2, 72 h): 2.52e-05 M

Cc1nn(C)c2c1-c1cccc3c(CCCOc4cccc5ccccc45)c(C(=O)O)n(c13)CCCN(C)C2 (single isomer, unassigned; enantiomer 2) [Example 1-32, 7,9,11-trimethyl-1-[3-(naphthalen-1-yloxy)propyl]-4,5,6,7,8,9-hexahydropyrazolo[3′,4′:7,8][1,5]diazecino[9,10,1-hi]indole-2-carboxylic Acid-N-ethylethanamine Salt (Enantiomer 2)]
IC50 (SUDHL10 [1]): 1.18e-05 M
IC50 (SUDHL5 [2]): 1.63e-05 M
IC50 (A2780): 1.82e-05 M
IC50 (SUDHL10 [3]; [7]): 3.23e-05 M
IC50 (MCL-1): 0.0492 µM
IC50 (SUDHL5 [4]; [8]): > 3.3e-05 M
EC50 (SUDHL10 [5]): 22.9 µM and 20.4 µM and > 33 µM
EC50 (SUDHL5 [6]): > 33 µM
IC50 (OPM2): 2.76e-05 M

Cc1nn(C)c2c1-c1cccc3c(CCCOc4cccc5c4CCCC5)c(C(=O)O)n(c13)CCCCOC2 (racemic) [Example 006, (rac)-1,3-dimethyl-7-[3-(5,6,7,8-tetrahydronaphthalen-1-yloxy)propyl]-1,10,11,12,13,15-hexahydropyrazolo[4′,3′:9,10][1,6]oxazacycloundecino[8,7,6-hi]indole-8-carboxylic Acid]
IC50 (SUDHL10 [1]; Homo sapiens, SU-DHL10, 72 h): 4.99e-06 M
IC50 (SUDHL5 [2]; Homo sapiens, SU-DHL-5, 72 h): 3.22e-06 M
IC50 (A2780): 2.49e-05 M
IC50 (A2780; Homo sapiens, A2780, 72 h): > 3.3e-05 M
IC50 (SUDHL10 [3]; [9]): 1.99e-05 M
IC50 (SUDHL10 [3]; [7]): > 3.3e-05 M
IC50 (MCL-1): 0.00831 µM
IC50 (SUDHL5 [4]; [10]): 7.28e-06 M
EC50 (SUDHL5 [6]; Homo sapiens, SU-DHL-5, 3 h): 6.95 µM
IC50 (OPM2; Homo sapiens, OPM-2, 72 h): 1.9e-05 M
IC50 (OPM2): > 3.3e-05 M
